Results taken from patent US8293705B2, “HCV protease inhibitors and uses thereof” (Avila Therapeutics, Inc., priority 2007, dated 2012).
Where two headings read alike, the source gives them in different places.

Legend:
HCV NS3/4A wild type = biological target: T1, HCV NS3/4A wild type (Hepatitis C virus genotype 1b, UniProt Q9WMX2); test: Mass spectrometric analysis of covalent modification (MALDI-TOF); type: binding; settings: 10× excess of test compound to protein; MALDI-TOF
T1 construct: HCV NS3/4A wild type (wt) was incubated for 1 hr at a 10× fold access of test compound to protein; purchased Bioenza, Calif
Method: Mass spectrometric analysis of HCV wild type or HCV variant C159S in the presence of test compound is performed. 100 pmols of HCV wild type (Bioenza, Calif.) is incubated with test compound for 1 hr and 3 hrs at 10-fold access of test compound to protein. 1 ul aliquots of the samples (total volume of 4.24 ul) are diluted with 10 ul of 0.1% TFA prior to micro C4 ZipTipping directly onto the MALDI target using Sinapinic acid as the desorption matrix (10 mg/mL in 0.1% TFA:Acetonitrile 50:50). Analyses are performed on a Shimadzu Biotech Axima TOF2 (Shimadzu Instruments) matrix-assisted-laser desorption/ionization Time-of-Flight (MALDI-TOF) mass spectrometer. The same procedure is carried out on 100 pmols of HCV C159S mutant of HCV protease for 3 hrs at 10-fold excess of test compound to protein.
As depicted in FIGS. 1 and 2, mass spectrometric analysis of HCV wild type in the presence of test compounds I-1 and I-25 was performed using the following protocol: HCV NS3/4A wild type (wt) was incubated for 1 hr at a 10× fold access of test compound to protein. 2 ul aliquots of the samples were diluted with 10 ul of 0.1% TFA prior to micro C4 ZipTipping directly onto the MALDI target using Sinapinic acid as the desorption matrix (10 mg/ml in 0.1% TFA:Acetonitrile 50:50). For intact protein mass measurement the instrument was set in linear mode using a pulsed extraction setting of 24,500 and apomyoglobin as the standard to calibrate the instrument.

[1] = biological target: T2, HCV NS3/4A 1b protease wild type (Hepatitis C virus genotype 1b, UniProt Q9WMX2); test: HCV protease FRET assay (IC50_APP), Example 16; type: biochemical
T2 construct: 10× stocks of NS3/4A protease enzyme from Bioenza (Mountain View, Calif.); purchased Bioenza (Mountain View, Calif.)
Method: (§1) The following protocol was used to generate “apparent” IC50 (IC50 APP) values as depicted in Table 6, below. […] 5 μL of each enzyme were added to Corning (#3575) 384-well, black, microtiter plates (Corning, N.Y.) after spotting a 0.5 μL volume of 50% DMSO and serially diluted compounds prepared in 50% DMSO. Protease reactions were immediately started after enzyme addition with the addition of 45 μL of the FRET substrate and monitored for 60-90 minutes at λex485/λem520 in a Synergy^4 plate reader from BioTek (Winooski, Vt.). At the conclusion of each assay, progress curves from each well were examined for linear reaction kinetics and fit statistics (R^2, 95% confidence intervals, absolute sum of squares).
(§2) The compound numbers correspond to the compound numbers in Table 3. […] ;

[2] = biological target: T3, HCV NS3/4A 1b protease A156T (Hepatitis C virus genotype 1b, UniProt Q9WMX2, A1182T); test: HCV protease FRET assay (IC50_APP), Example 16; type: biochemical
T3 construct: 10× stocks of NS3/4A protease enzyme from Bioenza (Mountain View, Calif.); purchased Bioenza (Mountain View, Calif.)
Method: as §1, §2

[3] = biological target: T4, HCV NS3/4A 1b protease D168A (Hepatitis C virus genotype 1b, UniProt Q9WMX2, D1194A); test: HCV protease FRET assay (IC50_APP), Example 16; type: biochemical
T4 construct: 10× stocks of NS3/4A protease enzyme from Bioenza (Mountain View, Calif.); purchased Bioenza (Mountain View, Calif.)
Method: as §1, §2

[4] = test system: HCV RNA replicon in cell line ET (luc-ubi-neo/ET), human Huh7 hepatoma; test: Replicon luciferase assay, Example 26; type: cell-based; settings: Hepatitis C virus, Huh-7, assay of Example 26, 72 hr; for EC50: read-out: Inhibition, Replicon, EC50 value
Method: The compounds were assayed to evaluate the antiviral activity and cytotoxicity of compounds using replicon-derived luciferase activity. This assay used the cell line ET (luc-ubi-neo/ET), which is a human Huh7 hepatoma cell line that contains an HCV RNA replicon with a stable luciferase (Luc) reporter and cell culture-adaptive mutations. The ET cell line was grown in a 5% CO2 incubator at 37° C. in Dulbecco's modified essential media (DMEM) supplemented with 2 mM L-glutamine, nonessential amino acids, 100 U of penicillin/ml, 100 μg of streptomycin/mL, and 10% fetal bovine serum. G418 (Geneticin; Invitrogen) was added at a final concentration of 400 ug//mL.
All cell culture reagents were obtained from Invitrogen (Carlsbad). Cells were trypsinized (1% trypsin:EDTA) and plated out at 5×10^3 cells/well in white 96-well assay plates (Costar) dedicated to cell number (cytotoxicity) or antiviral activity assessments. Test compounds were added at six 3-fold concentrations each and the assay was run in DMEM, 5% FBS, 1% pen-strep, 1% glutamine, 1% non essential amino acid. Human interferon alpha-2b (PBL Biolabs, New Brunswick, N.J.) was included in each run as a positive control compound. Cells were processed 72 hr post test compound addition when the cells were still subconfluent. Antiviral activity was measured by analyzing replicon-derived luciferase activity using the Steady-Glo Luciferase Assay System (Promega, Madison, Wis.) according to manufacturer's instruction. The number of cells in each well was determined by Cell Titer Blue Assay (Promega). Compound profile was derived by calculating applicable EC50 (effective concentration inhibiting virus replication by 50%), EC90 (effective concentration inhibiting virus replication by 90%), IC50 (concentration decreasing cell viability by 50%) and SI50 (selective index: […]) values.

[5] = biological target: T5, HCV NS3/4A 1b protease R155K (Hepatitis C virus genotype 1b, UniProt Q9WMX2, R1181K); test: HCV protease FRET assay (IC50_APP), Example 16; type: biochemical; settings: reaction started immediately after enzyme addition, read-out: Inhibition (apparent IC50, IC50_APP), HCV R155K
T5 construct: 10× stocks of NS3/4A protease enzyme from Bioenza (Mountain View, Calif.); purchased Bioenza (Mountain View, Calif.)
Method: as §1, §2

SMILES | Covalent modification of HCV NS3/4A wild type (HCV NS3/4A wild type) | IC50 [1] [nM] | IC50 [2] [nM] | IC50 [3] [nM] | EC50 [4] [nM] | EC90 ([4]; read-out: Inhibition, Replicon, EC90 value) [nM] | IC50 ([1]; read-out: Inhibition (apparent IC50, IC50_APP), WT, FRET, reaction started immediately after enzyme addition) [nM] | IC50 [5] [nM] | IC50 ([3]; read-out: Inhibition (apparent IC50, IC50_APP), HCV D168A, FRET, reaction started immediately after enzyme addition) [nM]
C=CC(=O)N[C@H](C)C(=O)N1C[C@H](OC(=O)N2Cc3cccc(F)c3C2)C[C@H]1C(=O)N[C@]1(C(=O)NS(=O)(=O)C2CC2)C[C@H]1C=C [Compound I-8, (3R,5S)-1-((R)-2-acrylamidopropanoyl)-5-((1R,2S)-1-(cyclopropylsulfonylcarbamoyl)-2-vinylcyclopropylcarbamoyl)pyrrolidin-3-yl-4-fluoroisoindoline-2-carboxylate] | measurable covalent modification | < 10 | < 10 | < 10 | – | – | – | – | –
C=CC(=O)N[C@@H](C(=O)N1C[C@H](OC(=O)N2Cc3cccc(F)c3C2)C[C@H]1C(=O)N[C@]1(C(=O)NS(=O)(=O)C2CC2)C[C@H]1C=C)C(C)C [Compound I-9, (3R,5S)-1-((R)-2-acrylamido-3-methylbutanoyl)-5-((1R,2S)-1-(cyclopropylsulfonylcarbamoyl)-2-vinylcyclopropylcarbamoyl)pyrrolidin-3-yl-4-fluoroisoindoline-2-carboxylate] | measurable covalent modification | < 10 | < 10 | 10 to 100 | – | – | – | – | –
C=C[C@@H]1C[C@]1(NC(=O)[C@@H]1C[C@@H](OC(=O)N2Cc3cccc(F)c3C2)CN1C(=O)CNC(=O)c1ccccc1OC(C)=O)C(=O)NS(=O)(=O)C1CC1 [Compound I-10, (3R,5S)-1-(2-(2-acetoxybenzamido)acetyl)-5-((1R,2S)-1-(cyclopropylsulfonylcarbamoyl)-2-vinylcyclopropylcarbamoyl)pyrrolidin-3-yl-4-fluoroisoindoline-2-carboxylate] | measurable covalent modification | 100 to 1000 | 1000 to 10000 | 1000 to 10000 | – | – | – | – | –
CC(C)(C)OC(=O)N[C@H]1CCCN(S(=O)(=O)c2ccccc2[N+](=O)[O-])C/C=C\[C@@H]2C[C@@]2(C(=O)NS(=O)(=O)C2CC2)NC(=O)[C@@H]2CC(OC(=O)N3Cc4cccc(F)c4C3)CN2C1=O (stereo partly drawn) [Compound I-54] | – | – | – | – | 100 to 1000 | > 10000 | < 10 | 10 to 100 | 10 to 100
C=C[C@@H]1C[C@]1(NC(=O)[C@@H]1C[C@@H]2CN1C(=O)[C@H](CCC(=O)C=C(C)C)NC(=O)OCC(C)(C)CC/C=C/c1cccc3c1CN(C3)C(=O)O2)C(=O)NS(=O)(=O)C1CC1 [Compound I-55] | – | < 10 | < 10 | 10 to 100 | < 10 | – | – | 10 to 100 | –
CC[C@@H]1C[C@]1(NC(=O)[C@@H]1C[C@@H]2CN1C(=O)[C@H](CCC(=O)C=C(C)C)NC(=O)OCC(C)(C)CC/C=C/c1cccc3c1CN(C3)C(=O)O2)C(=O)NS(=O)(=O)C1CC1 [Compound I-56] | – | < 10 | – | 100 to 1000 | < 10 | – | – | 100 to 1000 | –
C=C[C@@H]1C[C@]1(NC(=O)[C@@H]1CC(OC(=O)N2Cc3cccc(F)c3C2)CN1C(=O)[C@H](CC(=O)C(=C)C)NC(=O)OC(C)(C)C)C(=O)NS(=O)(=O)C1CC1 (stereo partly drawn) [Compound I-68] | – | < 10 | – | < 10 | 100 to 1000 | – | – | < 10 | –
C=C(C)C(=O)C[C@H](NC(=O)OC(C)(C)C)C(=O)N1CC(OC(=O)N2Cc3cccc(F)c3C2)C[C@H]1C(=O)N[C@]1(C(=O)NS(=O)(=O)C2CC2)C[C@H]1CC (stereo partly drawn) [Compound I-69] | – | < 10 | – | 10 to 100 | 100 to 1000 | – | – | < 10 | –
C=C[C@@H]1C[C@]1(NC(=O)[C@@H]1CC(OC(=O)N2Cc3cccc(F)c3C2)CN1C(=O)[C@H](CCC(=O)/C=C\C(C)(C)C)NC(=O)OC(C)(C)C)C(=O)NS(=O)(=O)C1CC1 (stereo partly drawn) [Compound I-71] | – | < 10 | – | 100 to 1000 | < 10 | – | – | 100 to 1000 | –
C=C[C@@H]1C[C@]1(NC(=O)[C@@H]1C[C@@H]2CN1C(=O)[C@H](CC(=O)C=C(C)C)NC(=O)OCC(C)(C)CC/C=C/c1cccc3c1CN(C3)C(=O)O2)C(=O)NS(=O)(=O)C1CC1 [Compound I-79] | – | < 10 | – | 10 to 100 | < 10 | – | – | < 10 | –
